According to patent publication US20040014678A1, “Prevention of beta-amyloid neurotoxicity by blockade of the ubiquitin-proteasome proteolytoc pathway” (priority 2003, published 2004):
“Also recorded” adds a separate entry of the source. Residues, ends and D or L forms follow the SMILES beside them.

Tests used:
rat cortical neurons [1] = assay: cells; format: cell-based
Procedure: FIGS. 3A and 3B show inhibition of β-amyloid (β-am) neurotoxicity by lactacystin (lacta) and Leu-Ala. Cell viability is assessed using the MTT assay. The conversion of tetrazolium salts is measured using a spectrophotometer and expressed as absorbance in arbitrary units. […] Lacta inhibits the neurotoxic effect cause by β-am in a concentration-dependent manner (•[formula]•).
(§1) Hemispheres were separated, and meninges were carefully removed.
Neurons plated at a density of 0.4×10^6 in 48-multiwell plates were exposed for the appropriate times to the test agents. MTT reduction was used to measure mitochondrial activity as an index of cell viability. The reaction was started by adding 0.4 mg/ml MTT in a PBS solution to the neurons. After 16 h of incubation at 37° C., 100 μl of pure dimethyl sulfoxide is added to each well. After an additional 12 h of incubation, absorbance values at 570 nm were determined with an automatic microplate reader, using 630 nm as a reference wavelength. Experiments were done in 48-multiwell plates allowing eight samples for each experimental point. Experiments were repeated at least three times.

rat cortical neurons [2] = assay: Morphologic analysis of β-amyloid-induced cortical neuron damage (phase-contrast); conditions: for neuronal viability, agent alone: without β-amyloid
Procedure: FIGS. 1A, 1B, 1C and 1D provide morphologic analysis of β-amyloid-induced cortical neuron damage shown in representative phase-contrast images of cortical neurons at 13 days in vitro. Cells are treated for 5 days with vehicle (FIG. 1A), 50 nM lactacystin (FIG. 1B), 20 μM β-amyloid (FIG. 1C), or 20 μM β-amyloid+50 nM lactacystin (FIG. 1D).
(§2) Neurons were prepared from 17-day-old rat fetuses, according to a previously published protocol (Hampson et al. (1998)). In brief, the fetuses were decapitated, the brains were dissected and placed in phosphate-buffered saline (PBS) containing 4.5 g/L glucose. Hemispheres were separated, and meninges were carefully removed. Cortical tissues were freed from subcortical structures and cut into small fragments. Tissues were incubated with papain activated with cysteine for 10 min at 37° C. Papain was neutralized with a solution of ovomucoid and bovine serum albumin. Finally, tissues were mechanically dissociated until a single-cell suspension was obtained. Cells were plated in poly-D-lysine-coated 3.5-cm-diameter Petri dishes, 48-multiwell plates, or tissue culture flasks.

[3] = test system: ubiquitination of neuronal proteins; assay: Western blot of ubiquitinated neuronal proteins; format: cell-based, rat; conditions: for ubiquitinated proteins, agent alone: 72 h
Procedure: Lactacystin alone (lane 3), by blocking proteasome activity, causes an accumulation of ubiquitinated protein, although to a lesser extent than β-amyloid.
as §1
Western blot analysis was performed as previously described (Favit et al., 1998) with the following modifications. Proteins were extracted from neuronal pellets in a PBS solution containing 1 mg/ml leupeptin, 1 mg/ml pepstatin, 1 mg/ml chymostatin, 1 mg/ml antipain, and 0.2 mM phenylmethylsulfonyl fluoride. (Vannucci et al. (1998)). The crude homogenate was balanced with sample buffer containing 0.5 M Tris-HCl (pH 6.8), 10% glycerol, 2% sodium dodecyl sulfate, and 0.5% 2-mercaptoethanol to a final volume of 20 μl with a total protein concentration of […]. Sodium dodecyl sulfate-polyacrylamide gel electrophoresis was carried out in a 4-20% acrylamide gradient gel 1.5 mm thick. (Novex, San Diego, Calif., U.S.A.). Twenty micrograms per lane of protein of the crude homogenate was electrophoresed and transferred overnight onto a nitrocellulose membrane (Schleicher & Schuell). The membrane was blocked in 1% bovine serum albumin in 95% Tris-buffered saline for 1 h. Immunodetection of ubiquitin was obtained by exposing the membrane to an anti-ubaiqtin polyclonal primary antibody at 1:1,000 dilution for 1 h. Blots were then incubated with an anti-mouse alkaline phosphatase-conjugated secondary antibody for 1 h. Finally, the nitrocellulose was stained with a solution containing 0.1 M Tris-HCl (pH 9.6), 0.001 M MgCl2, 1% nitro blue terrazolium (Pierce), and 1% 5-bromo-4chloro-3-indolyl phosphate toluidine salt (Pierce). All reactions were carried out at room temperature. At least three independent sets of experiments were conducted.
Blocking ubiquitination with Leu-Ala or inhibiting proteasome activity with lactacystin prevent β-amyloid-induced neurotoxicity. […] Therefore, the ability of β-amyloid to cause ubiquitination of neuronal proteins was tested. Neurons were incubated with β-amyloid for 72 h in the presence of 50 nM lactacystin or 2 mM Leu-Ala and harvested. […] As a consequence of this, the target proteins are not degraded by the proteasome.

rat cortical neurons [4] = test system: rat cortical neurons
Procedure: Cells are treated with the agents indicated in the respective heading (e.g. LACTA for lactacystin) and then stained with fluorescein and propidium. […] Data are mean±SE (bars) values.
as §2
Viability of cortical neurons was assessed with a propidium iodide exclusion test and fluorescein diacetate incorporation assessment, according to a previously published protocol. (Favit et al. (1992)). Rat cortical neurons seeded on 3.5-cm-diameter dishes were treated, washed with PBS, and incubated with a PBS solution containing 36 μM fluroescein diacetate and 7 μM propidium iodide for 3 min at room temperature. Cell viability was assessed by counting 100 cells per microscope field (using a 20× lens) for the number of fluorescein-labeled neurons versus propidium-positive cells. Experiments were conducted in duplicate and repeated at least three times. Statistical validity was assessed by ANOVA followed by a post hoc test.

Molecule: CC(C)C[C@H](NC(=O)[C@H](C)N)C(=O)O [Ala-Leu] (H-Ala-Leu-OH)
- reduction of β-amyloid toxicity (rat cortical neurons [1]; reverse dipeptide, data not shown): does not cause any reduction of β-amyloid toxicity

Molecule: CC(C)C[C@H](N)C(=O)N[C@@H](C)C(=O)O [Leu-Ala, leucine-alanine dipeptide] (H-Leu-Ala-OH)
- neuronal viability, agent alone (rat cortical neurons [2]): did not affect neuronal viability
- cell damage caused by β-am (rat cortical neurons [1]; 2 mM Leu-Ala with β-am): clear reduction of the cell damage caused by β-am
- ubiquitinated proteins, agent alone [3]: does not affect protein ubiquitination in control cells
- β-amyloid-induced ubiquitination ([3]; β-amyloid 72 h with 2 mM Leu-Ala): markedly reduced; also recorded: completely prevented

Molecule: CC(=O)N[C@@H](CSC(=O)[C@]1([C@@H](O)C(C)C)NC(=O)[C@H](C)[C@@H]1O)C(=O)O [lactacystin]
- β-amyloid-induced morphologic degeneration of neurons (rat cortical neurons [2]; 50 nM lactacystin with 20 μM β-amyloid, 5 days): prevented β-amyloid-induced morphologic degeneration of neurons
- neuronal viability, agent alone (rat cortical neurons [2]): did not affect neuronal viability
- β-amyloid-induced propidium staining (rat cortical neurons [4]; β-amyloid combined with 50 nM lactacystin): reversed to near control levels
- cell damage caused by β-am (rat cortical neurons [1]; 50 nM lacta with β-am): clear reduction of the cell damage caused by β-am
- EC50 (rat cortical neurons [1]; Rattus norvegicus, Cortical neurone, in presence of β-amyloid, read-out: apparent EC50 for blocking β-amyloid toxicity): 0.03 µM
- prevention of toxic effect of β-amyloid at the highest concentration tested (rat cortical neurons [1]; highest concentration tested): almost entirely prevents the toxic effect of β-amyloid
- concentration at which the protective effect is already statistically significant (rat cortical neurons [1]; in presence of β-amyloid): 25 nM
- concentration at which the protective effect reaches an apparent plateau (rat cortical neurons [1]; in presence of β-amyloid): 500 nM
- ubiquitinated proteins, agent alone [3]: increases the presence of ubiquitinated protein
- β-amyloid-induced ubiquitination ([3]; β-amyloid 72 h with 50 nM lactacystin): not affected

Molecule: β-Amyloid 1-40 [β-amyloid fragment 1-40]
- fluorescein sequestration (rat cortical neurons [4]): not able to sequester fluorescein
- number of viable cells (cell counts) (rat cortical neurons [4]): significantly reduces the number of viable cells
- propidium iodide staining (rat cortical neurons [4]): clear staining with propidium iodide
- viable cells (MTT) (rat cortical neurons [1]): greatly decreases viable cells
- ubiquitinated proteins, agent alone [3]: marked increase of ubiquitination of multiple proteins
